What was measured:
P 388 D.1 Makrophagen = test: Inhibition of cholesterol ester formation in macrophages (after Huber et al.); assay type: cell-based; settings: P 388 D.1 macrophages; for Hemmung der Cholesterinesterbildung in Macro- (P388D.1): 18 h incubation, F-10 medium + 1 µM Cu(II) + 50 µg/ml LDL + 5 % FCS, test concentration not given
Description: Hemmung der Cholesterinesterbildung in Makrophagen (nach Huber et al. (1990) Free Rad. Res. Comms. 8, 167-173)
Humanplasma-LDL wurde durch sequentielle Ultrazentrifugation bei präselekierten Dichten aus dem Plasma gesunder männlicher Nichtraucher isoliert und für 5 h bei 37° C in F-10 Medium + 1µM Cu(II) zur Depletion seiner lipophilen Antioxidantien inkubiert. Die Bildung von Cholesterinestern in P 388 D.1 Makrophagen unter Einfluß von konditioniertem human Plasma-LDL wurde nach 18 h Inkubation der Zellen (2 x 10^6/ml) in F-10 Medium + 1 µM Cu(II) + 50 µg/ml LDL + 5 % FCS nach Extraktion der Neutral fette dünnschichtchromatographisch gemessen.

Plasma-LDL = test: Stabilisation of plasma LDL: prolongation of the lag phase of Cu(II)-induced oxidation (diene formation at A 234); assay type: biochemical, human; settings: for Stabilisierung v. Plasma LDL: Verlängerung der "lag-Phase": 3 molecules test substance per LDL particle, LDL 125 µg protein/ml, 10 µM CuCl2, pH 8, 42° C
Description: Stabilisierung von Plasma-LDL (nach Huber et al. (1990) Free Rad. Res. Comms. 8, 167-173)
LDL (125 µg Protein/ml) wurde in 20 mM Tris-Cl pH 8, 150 mM NaCl, 10 µM CuCl2 mit und ohne Testverbindung (gelöst in Äthanol, Äthanolendkonzentration 0,5 %) bei 42° C oxidiert. Es wurden jeweils 3 Moleküle Testsubstanz pro LDL-Partikel eingesetzt. Die Oxidation wurde kontinuierlich photometrisch bei A 234 durch die Messung der Dienbildung verfolgt. Die sogenannte "lag Phase" ist als dasjenige Zeitintervall definiert, das sich aus dem Schnittpunkt der Tangente der Kurve während der Propagationsreaktion der Lipidperoxidation und der Zeitachse ergibt.

SMILES	Hemmung der Cholesterinesterbildung in Macro- (P388D.1) (P 388 D.1 Makrophagen)	Stabilisierung v. Plasma LDL: Verlängerung der "lag-Phase" (Plasma-LDL)	Hemmung der Chol-ester-bildung (P 388 D.1 Makrophagen; reference substance, 10 /uM, n=7)	verlängern die lag-Phase von LDL (Plasma-LDL; reference substance, 3 molecules/LDL particle) [%]
CC(C)(C)c1cc(S(=O)(=O)NCc2ccccc2)cc(C(C)(C)C)c1O [1b).2, (3,5-Di-^tbutyl-4-hydroxy)benzolsulfo-benzylamid]	-73,0	8	–	–
Cc1cc(C(C)(C)C)c(O)c(S(=O)(=O)NCc2ccccc2)c1 [Beispiel 2.2, (3-^tButyl-2-hydroxy-5-methyl)benzolsulfo-benzylamid]	-64.1	–	–	–
CC(C)(C)c1cc(NS(=O)(=O)c2cc(C(C)(C)C)c(O)c(C(C)(C)C)c2)cc(C(C)(C)C)c1O [Beispiel 3.10]	-77.4	–	–	–
CC(C)(C)c1cc(CNS(=O)(=O)c2cc(C(C)(C)C)c(O)c(C(C)(C)C)c2)cc(C(C)(C)C)c1O [Beispiel 3.11]	-66.7	79	–	–
CC(C)(C)c1cc(CCNS(=O)(=O)c2cc(C(C)(C)C)c(O)c(C(C)(C)C)c2)cc(C(C)(C)C)c1O [Beispiel 3.12]	-63.4	–	–	–
CC(C)(C)c1cc(CCCNS(=O)(=O)c2cc(C(C)(C)C)c(O)c(C(C)(C)C)c2)cc(C(C)(C)C)c1O [Beispiel 3.13]	-72.6	–	–	–
CC(C)(Sc1cc(C(C)(C)C)c(O)c(C(C)(C)C)c1)Sc1cc(C(C)(C)C)c(O)c(C(C)(C)C)c1 [Probucol, reference compound]	–	–	25-42%	10
